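Test compounds were applied to cells in 96-well plates for 48 hours at 5 doses. Abbreviation: GI50, concentration required for 50% inhibition of growth. TGI: concentration producing complete growth inhibition.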
What was measured:
Experiment in all cases: inhibition of tumour cell growth, NCI panel, 48 h
786-0 renal = tested on: 786-0 renal
A498 renal = tested on: A498 renal
A549 NSCLC = tested on: A549 NSCLC
ACHN renal = tested on: ACHN renal
BT-549 breast = tested on: BT-549 breast
CAKI-1 renal = tested on: CAKI-1 renal
CCRF-CEM leukemia = tested on: CCRF-CEM leukemia
COLO 205 colon = tested on: COLO 205 colon
DU-145 prostate = tested on: DU-145 prostate
HCC-2998 colon = tested on: HCC-2998 colon
HCT-116 colon = tested on: HCT-116 colon
HCT-15 colon = tested on: HCT-15 colon
HL-60(TB) leukemia = tested on: HL-60(TB) leukemia
HOP-62 NSCLC = tested on: HOP-62 NSCLC
HOP-92 NSCLC = tested on: HOP-92 NSCLC
HS 578T breast = tested on: HS 578T breast
HT29 colon = tested on: HT29 colon
IGROV1 ovarian = tested on: IGROV1 ovarian
K-562 leukemia = tested on: K-562 leukemia
KM12 colon = tested on: KM12 colon
LOX IMVI melanoma = tested on: LOX IMVI melanoma
M14 melanoma = tested on: M14 melanoma
MALME-3M melanoma = tested on: MALME-3M melanoma
MCF7 breast = tested on: MCF7 breast
MDA-MB-231 breast = tested on: MDA-MB-231 breast
MDA-MB-435 = tested on: MDA-MB-435
MOLT-4 leukemia = tested on: MOLT-4 leukemia
NCI-H226 lung = tested on: NCI-H226 lung
NCI-H460 lung = tested on: NCI-H460 lung
NCI/ADR-RES ovarian = tested on: NCI/ADR-RES ovarian
OVCAR-3 ovarian = tested on: OVCAR-3 ovarian
OVCAR-4 ovarian = tested on: OVCAR-4 ovarian
OVCAR-5 ovarian = tested on: OVCAR-5 ovarian
OVCAR-8 ovarian = tested on: OVCAR-8 ovarian
PC-3 prostate = tested on: PC-3 prostate
RPMI-8226 leukemia = tested on: RPMI-8226 leukemia
RXF 393 renal = tested on: RXF 393 renal
SF-268 CNS = tested on: SF-268 CNS
SF-295 CNS = tested on: SF-295 CNS
SF-539 CNS = tested on: SF-539 CNS
SK-MEL-2 melanoma = tested on: SK-MEL-2 melanoma
SK-MEL-28 melanoma = tested on: SK-MEL-28 melanoma
SK-MEL-5 melanoma = tested on: SK-MEL-5 melanoma
SK-OV-3 ovarian = tested on: SK-OV-3 ovarian
SN12C renal = tested on: SN12C renal
SNB-19 CNS = tested on: SNB-19 CNS
SNB-75 CNS = tested on: SNB-75 CNS
SR leukemia = tested on: SR leukemia
SW-620 colon = tested on: SW-620 colon
T-47D breast = tested on: T-47D breast
TK-10 renal = tested on: TK-10 renal
U251 CNS = tested on: U251 CNS
UACC-257 melanoma = tested on: UACC-257 melanoma
UACC-62 melanoma = tested on: UACC-62 melanoma
UO-31 renal = tested on: UO-31 renal

Work on `Cc1ccc(NC2=C(Cl)C(=O)c3nc(C)ccc3C2=O)c(C)c1` yielded a GI50 (786-0 renal) of 2000 nM, a TGI (786-0 renal) of 4400 nM and a GI50 (A498 renal) of 1610 nM. For the same molecule, the TGI (A498 renal) was 6590 nM, the GI50 (A549 NSCLC) was 2220 nM and the TGI (A549 NSCLC) was 5200 nM. For the same molecule, the GI50 (ACHN renal) was 1910 nM, the TGI (ACHN renal) was 3720 nM and the GI50 (BT-549 breast) was 1440 nM. For the same molecule, the TGI (BT-549 breast) was 2820 nM, the GI50 (CAKI-1 renal) was 1730 nM and the TGI (CAKI-1 renal) was 3340 nM. It also gave a GI50 (CCRF-CEM leukemia) of 2020 nM, a TGI (CCRF-CEM leukemia) of 6000 nM and a GI50 (COLO 205 colon) of 2060 nM. For the same molecule, the TGI (COLO 205 colon) was 4280 nM, the GI50 (DU-145 prostate) was 1710 nM and the TGI (DU-145 prostate) was 3220 nM. The GI50 (HCC-2998 colon) was 1750 nM, the TGI (HCC-2998 colon) was 3310 nM and the GI50 (HCT-116 colon) was 1520 nM. It also gave a TGI (HCT-116 colon) of 3250 nM, a GI50 (HCT-15 colon) of 1300 nM and a TGI (HCT-15 colon) of 3190 nM. The GI50 (HL-60(TB) leukemia) was 1740 nM, the TGI (HL-60(TB) leukemia) was 4480 nM and the GI50 (HOP-62 NSCLC) was 1710 nM. The TGI (HOP-62 NSCLC) was 3160 nM, the GI50 (HOP-92 NSCLC) was 2080 nM and the TGI (HOP-92 NSCLC) was 4350 nM. It also gave a GI50 (HS 578T breast) of 2280 nM, a TGI (HS 578T breast) of 5950 nM and a GI50 (HT29 colon) of 2610 nM. It also gave a TGI (HT29 colon) of 7340 nM, a GI50 (IGROV1 ovarian) of 1850 nM and a TGI (IGROV1 ovarian) of 3880 nM. For the same molecule, the GI50 (K-562 leukemia) was 1620 nM, the TGI (K-562 leukemia) was 5540 nM and the GI50 (KM12 colon) was 1740 nM. The TGI (KM12 colon) was 3290 nM, the GI50 (LOX IMVI melanoma) was 1140 nM and the TGI (LOX IMVI melanoma) was 3880 nM. For the same molecule, the GI50 (M14 melanoma) was 1620 nM, the TGI (M14 melanoma) was 3080 nM and the GI50 (MALME-3M melanoma) was 1960 nM. For the same molecule, the TGI (MALME-3M melanoma) was 3900 nM, the GI50 (MCF7 breast) was 1400 nM and the TGI (MCF7 breast) was 3580 nM. The GI50 (MDA-MB-231 breast) was 1890 nM, the TGI (MDA-MB-231 breast) was 4440 nM and the GI50 (MDA-MB-435) was 1960 nM. It also gave a TGI (MDA-MB-435) of 3810 nM, a GI50 (MOLT-4 leukemia) of 1600 nM and a TGI (MOLT-4 leukemia) of 4830 nM. It also gave a GI50 (NCI-H226 lung) of 1810 nM, a TGI (NCI-H226 lung) of 4630 nM and a GI50 (NCI-H460 lung) of 1990 nM. For the same molecule, the TGI (NCI-H460 lung) was 4170 nM, the GI50 (NCI/ADR-RES ovarian) was 2170 nM and the TGI (NCI/ADR-RES ovarian) was 6520 nM. The GI50 (OVCAR-3 ovarian) was 1420 nM, the TGI (OVCAR-3 ovarian) was 2840 nM and the GI50 (OVCAR-4 ovarian) was 1530 nM. It also gave a TGI (OVCAR-4 ovarian) of 3020 nM, a GI50 (OVCAR-5 ovarian) of 2260 nM and a TGI (OVCAR-5 ovarian) of 4330 nM. For the same molecule, the GI50 (OVCAR-8 ovarian) was 2410 nM, the TGI (OVCAR-8 ovarian) was 7110 nM and the GI50 (PC-3 prostate) was 1560 nM. The TGI (PC-3 prostate) was 3660 nM, the GI50 (RPMI-8226 leukemia) was 1540 nM and the TGI (RPMI-8226 leukemia) was 4340 nM. For the same molecule, the GI50 (RXF 393 renal) was 1410 nM, the TGI (RXF 393 renal) was 2760 nM and the GI50 (SF-268 CNS) was 1860 nM. It also gave a TGI (SF-268 CNS) of 4160 nM, a GI50 (SF-295 CNS) of 1820 nM and a TGI (SF-295 CNS) of 3430 nM. The GI50 (SF-539 CNS) was 1700 nM, the TGI (SF-539 CNS) was 3210 nM and the GI50 (SK-MEL-2 melanoma) was 1930 nM. It also gave a TGI (SK-MEL-2 melanoma) of 3880 nM, a GI50 (SK-MEL-28 melanoma) of 1950 nM and a TGI (SK-MEL-28 melanoma) of 3840 nM. It also gave a GI50 (SK-MEL-5 melanoma) of 1670 nM, a TGI (SK-MEL-5 melanoma) of 3080 nM and a GI50 (SK-OV-3 ovarian) of 2750 nM. It also gave a TGI (SK-OV-3 ovarian) of 10600 nM, a GI50 (SN12C renal) of 1950 nM and a TGI (SN12C renal) of 5030 nM. The GI50 (SNB-19 CNS) was 1940 nM, the TGI (SNB-19 CNS) was 4340 nM and the GI50 (SNB-75 CNS) was 1490 nM. For the same molecule, the TGI (SNB-75 CNS) was 3080 nM, the GI50 (SR leukemia) was 1280 nM and the TGI (SR leukemia) was 4190 nM. The GI50 (SW-620 colon) was 2150 nM, the TGI (SW-620 colon) was 4650 nM and the GI50 (T-47D breast) was 1660 nM. It also gave a TGI (T-47D breast) of 4140 nM, a GI50 (TK-10 renal) of 2150 nM and a TGI (TK-10 renal) of 3680 nM. The GI50 (U251 CNS) was 1760 nM, the TGI (U251 CNS) was 3370 nM and the GI50 (UACC-257 melanoma) was 1500 nM. For the same molecule, the TGI (UACC-257 melanoma) was 2920 nM, the GI50 (UACC-62 melanoma) was 2000 nM and the TGI (UACC-62 melanoma) was 4010 nM. The GI50 (UO-31 renal) was 1560 nM and the TGI (UO-31 renal) was 3150 nM.

Source: PubChem BioAssay (NCI)
